Data published in US10076491B2, “Vaccine composition” (NITTO DENKO CORPORATION, priority 2013, dated 2018).

Tested on: IFN-γ-producing cells (spleen cells)
Assay: Mouse immunization test with cream formulation for transdermal administration, ELISPOT method (IFN-γ)
Assay type: in vivo
Conditions: FIG. 1 / Table 2, combination with Th1 adjuvant imiquimod (IMQ), OVAp
Protocol: Spleen cells (3×10^6 cells/well) and an antigen peptide (100 μM) or an antigen protein (100 μg/mL) together with the culturing medium were placed into a well of an ELISPOT plate on which an anti-mouse IFN-γ antibody had been immobilized. The plate was cultured for 20 hours under the condition of 37° C. and 5% CO2. The number of the spots representing IFN-γ-producing cells (spot number/3×10^6 cells) was evaluated by the ELISPOT method.
Mouse Immunization Test with Cream Formulation for Transdermal Administration
Mouse immunization test was performed with the cream formulations prepared as described above using a model animal for immunological evaluation. The immunity induction level was evaluated by ELISPOT method. Specifically, the hair of the back of the mouse was cut, and the mouse was kept until it recovered from the skin damage due to the hair cutting. After that, 4 mg of each cream formulation was applied to the skin of the back of the mouse for 24 hours, and then removed. After 6 days, the level of the cellular immunity induction specific for the antigen was evaluated. Six days after the administration, the spleen of the mouse was removed to prepare a suspension of spleen cells. […] The number of the spot representing IFN-γ producing cells (spot number/3×10^6 cells) was evaluated by ELISPOT method.

SMILES | effect of combination of Th2 cell differentiation inhibitor and Th1 adjuvant (ELISPOT)
CC(C(=O)O)c1ccc(CC2CCCC2=O)cc1 (centres unmarked) [loxoprofen] | synergistic effect
COc1ccc2cc3[n+](cc2c1OC)CCc1cc2c(cc1-3)OCO2 [berberine] | synergistic effect
